Data reported in patent US5952376A, “Trienyl compounds” (The Trustees of the University of Pennsylvania, priority 1997, dated 1999).

Columns and labels:
SW 1736 = experiment: Antitumor Activity (in vitro), Thyroid ca SW 1736; type: cell-based; settings: Homo sapiens
Description: (§1) Trienes (+)-3a and (+)-3b were tested for antitumor activity generally in accordance with the procedure described by Bai, et al., Biochemistry 1995, 34, 9714.

DU-145 = experiment: Antitumor Activity (in vitro), Prostate DU-145; type: cell-based; settings: Homo sapiens
Description: as §1

BXPC-3 = experiment: Antitumor Activity (in vitro), Pancreas-a BXPC-3; type: cell-based; settings: Homo sapiens
Description: as §1

human cancer cell lines = experiment: antitumor activity against a series of human cancer cell lines; type: cell-based
Description: as §1

FADU = experiment: Antitumor Activity (in vitro), Pharynx-sq FADU; type: cell-based; settings: Homo sapiens
Description: as §1

NCI-H460 = experiment: Antitumor Activity (in vitro), Lung-NSC NCI-H460; type: cell-based; settings: Homo sapiens
Description: as §1

SK-N-SH = experiment: Antitumor Activity (in vitro), Neuroblast SK-N-SH; type: cell-based; settings: Homo sapiens
Description: as §1

mitosis = settings: cited from earlier work
tubulin = settings: cited from earlier work
microtubule assembly = settings: cited from earlier work
[1] = system: chemoresistant tumor types, including human melanoma and lung, colon, and brain cancers; settings: cited from earlier work

GI50 (SW 1736) [nM]	GI50 (DU-145) [nM]	GI50 (BXPC-3) [nM]	GI50 (FADU) [nM]	GI50 (NCI-H460) [nM]	GI50 (SK-N-SH) [nM]	Compound	antitumor activity (human cancer cell lines)	inhibition of mitosis (mitosis)	binding to tubulin (tubulin)	blocking microtubule assembly (microtubule assembly)	activity against chemoresistant tumor types [1]
9600	> 16000	5300	8300	11000	3600	C=C(Cl)/C=C/C(O)CC(=C)C[C@H]1OC(OC)[C@H](OCc2ccccc2)[C@@H](OCc2ccccc2)[C@@H]1OCc1ccccc1 (single isomer, unassigned) [Triene 3b]	active				
1200	560	440	470	460	540	C=C/C=C/C(O)CC(=C)C[C@H]1OC(OC)[C@H](OCc2ccccc2)[C@@H](OCc2ccccc2)[C@@H]1OCc1ccccc1 (single isomer, unassigned) [Triene 3a]	active				
						Spongistatin 1		inhibits mitosis	binding to tubulin	blocking microtubule assembly	active
